ChEMBL document CHEMBL1201862, “PubChem BioAssay data set” (2004)
Activity calls are given as the source filed them. For most assays here, no stated cut-off is given here; in the data, actives have a measured EC50 and inactives only a lower limit.

Assays:
[1] = biological target: T1, Replicative DNA helicase DnaB (Mycobacterium tuberculosis, UniProt P9WMR3); experiment: DnaB intein splicing inhibitors, dose response, biochemical, cell-free fluorescence (AID 449749); type: functional
T1 sequence (P9WMR3 whole entry): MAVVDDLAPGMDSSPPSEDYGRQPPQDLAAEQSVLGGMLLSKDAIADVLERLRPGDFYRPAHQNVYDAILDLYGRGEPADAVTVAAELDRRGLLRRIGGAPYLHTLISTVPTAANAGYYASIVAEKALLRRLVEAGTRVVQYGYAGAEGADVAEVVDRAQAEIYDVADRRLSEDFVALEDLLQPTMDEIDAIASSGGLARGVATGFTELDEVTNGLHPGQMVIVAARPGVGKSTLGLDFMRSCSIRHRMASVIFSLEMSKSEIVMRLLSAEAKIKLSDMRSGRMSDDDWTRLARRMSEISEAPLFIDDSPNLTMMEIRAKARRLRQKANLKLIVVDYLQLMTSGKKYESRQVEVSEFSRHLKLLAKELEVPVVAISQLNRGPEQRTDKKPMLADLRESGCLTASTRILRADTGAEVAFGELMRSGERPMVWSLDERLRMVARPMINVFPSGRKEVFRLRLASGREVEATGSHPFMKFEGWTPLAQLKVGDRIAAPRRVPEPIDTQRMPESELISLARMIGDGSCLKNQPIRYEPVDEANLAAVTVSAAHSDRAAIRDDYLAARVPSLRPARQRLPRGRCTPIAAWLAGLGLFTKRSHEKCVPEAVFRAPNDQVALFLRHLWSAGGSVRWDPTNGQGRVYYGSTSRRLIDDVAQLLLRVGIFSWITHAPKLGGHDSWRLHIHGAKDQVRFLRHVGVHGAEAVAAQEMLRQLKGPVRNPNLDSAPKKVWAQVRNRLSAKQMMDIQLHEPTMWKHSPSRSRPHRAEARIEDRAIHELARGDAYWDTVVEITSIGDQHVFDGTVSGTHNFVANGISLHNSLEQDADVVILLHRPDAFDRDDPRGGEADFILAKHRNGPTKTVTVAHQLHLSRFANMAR

Protein RecA = biological target: T2, Protein RecA (Mycobacterium tuberculosis, UniProt P9WHJ3); experiment: Fluorescence Cell-Free Homogeneous Dose Retest to Identify Inhibitors of RecA-Intein Splicing Activity. [Related pubchem assays (depositor defined):AID2097, AID2223, AID489010, AID492950]; type: functional
T2 sequence (P9WHJ3 whole entry): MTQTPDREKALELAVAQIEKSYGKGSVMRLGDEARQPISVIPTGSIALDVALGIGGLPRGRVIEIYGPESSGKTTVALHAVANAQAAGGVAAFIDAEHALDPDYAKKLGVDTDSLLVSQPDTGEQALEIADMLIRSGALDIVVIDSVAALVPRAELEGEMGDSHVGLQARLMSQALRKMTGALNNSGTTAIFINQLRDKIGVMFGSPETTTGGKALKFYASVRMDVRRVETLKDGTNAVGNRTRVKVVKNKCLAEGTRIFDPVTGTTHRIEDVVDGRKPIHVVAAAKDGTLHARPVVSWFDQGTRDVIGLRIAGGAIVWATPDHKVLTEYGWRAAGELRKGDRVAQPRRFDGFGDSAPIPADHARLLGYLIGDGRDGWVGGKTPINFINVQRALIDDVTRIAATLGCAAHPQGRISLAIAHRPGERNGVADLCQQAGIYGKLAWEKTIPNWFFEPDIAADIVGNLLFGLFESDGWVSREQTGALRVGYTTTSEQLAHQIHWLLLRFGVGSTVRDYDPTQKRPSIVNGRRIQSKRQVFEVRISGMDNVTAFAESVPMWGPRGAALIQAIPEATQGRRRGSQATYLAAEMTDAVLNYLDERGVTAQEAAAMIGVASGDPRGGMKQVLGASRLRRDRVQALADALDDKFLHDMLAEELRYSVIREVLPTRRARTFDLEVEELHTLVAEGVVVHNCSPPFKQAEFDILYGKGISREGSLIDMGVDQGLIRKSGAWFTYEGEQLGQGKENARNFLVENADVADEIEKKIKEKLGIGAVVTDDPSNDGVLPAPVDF

[2] = biological target: T3, RNA-binding protein pos-1 (Caenorhabditis elegans, UniProt G5EF15); experiment: inhibitors of POS-1/mex-3 RNA binding, dose response, biochemical, fluorescence polarization (AID 1964);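 further: purified POS-1 fused to maltose binding protein made in E. coli; potency of compounds blocking POS-1 binding to fluorescent RNA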
T3 sequence (G5EF15 whole entry): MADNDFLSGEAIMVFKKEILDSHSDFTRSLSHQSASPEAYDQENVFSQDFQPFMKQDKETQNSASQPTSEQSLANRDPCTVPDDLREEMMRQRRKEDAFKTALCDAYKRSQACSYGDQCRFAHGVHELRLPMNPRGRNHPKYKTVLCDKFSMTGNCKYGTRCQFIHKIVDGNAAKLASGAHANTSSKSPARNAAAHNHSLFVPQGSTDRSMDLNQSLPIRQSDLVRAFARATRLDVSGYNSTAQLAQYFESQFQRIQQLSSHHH

[3] = biological target: T4, Heat shock factor protein 1 (Mus musculus, UniProt P38532); experiment: HSF1 potentiators in luciferase reporter cells, confirmation, cell-based, NIH3T3, luminescence, dose retest (AID 435004); type: functional;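 further: stress induced by proteasome inhibitor MG132 added 30 min after compound; luciferase reporter driven by HSF1 response element in NIH3T3 cells; actives raise luminescence as potentiators of the MG132 stress response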
T4 sequence (P38532 whole entry): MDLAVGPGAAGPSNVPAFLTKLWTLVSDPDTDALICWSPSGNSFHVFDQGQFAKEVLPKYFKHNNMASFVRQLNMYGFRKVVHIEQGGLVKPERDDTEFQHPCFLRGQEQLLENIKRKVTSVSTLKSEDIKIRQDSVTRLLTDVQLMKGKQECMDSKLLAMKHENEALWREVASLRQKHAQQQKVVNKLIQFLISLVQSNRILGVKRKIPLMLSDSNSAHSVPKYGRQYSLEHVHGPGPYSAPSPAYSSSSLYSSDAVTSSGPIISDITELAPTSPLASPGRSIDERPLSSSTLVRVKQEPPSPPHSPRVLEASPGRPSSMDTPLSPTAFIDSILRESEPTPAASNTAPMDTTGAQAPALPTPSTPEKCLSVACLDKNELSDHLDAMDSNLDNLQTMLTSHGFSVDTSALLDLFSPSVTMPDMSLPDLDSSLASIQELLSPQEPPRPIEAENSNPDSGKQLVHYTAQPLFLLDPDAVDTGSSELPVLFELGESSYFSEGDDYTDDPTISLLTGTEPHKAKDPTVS

[4] = biological target: T5, Zinc finger protein mex-5 (Caenorhabditis elegans, UniProt Q9XUB2); experiment: MEX-5/TCR-2 RNA interaction inhibitors, dose response, biochemical, C. elegans, fluorescence polarization (AID 1960)
T5 sequence (Q9XUB2 whole entry): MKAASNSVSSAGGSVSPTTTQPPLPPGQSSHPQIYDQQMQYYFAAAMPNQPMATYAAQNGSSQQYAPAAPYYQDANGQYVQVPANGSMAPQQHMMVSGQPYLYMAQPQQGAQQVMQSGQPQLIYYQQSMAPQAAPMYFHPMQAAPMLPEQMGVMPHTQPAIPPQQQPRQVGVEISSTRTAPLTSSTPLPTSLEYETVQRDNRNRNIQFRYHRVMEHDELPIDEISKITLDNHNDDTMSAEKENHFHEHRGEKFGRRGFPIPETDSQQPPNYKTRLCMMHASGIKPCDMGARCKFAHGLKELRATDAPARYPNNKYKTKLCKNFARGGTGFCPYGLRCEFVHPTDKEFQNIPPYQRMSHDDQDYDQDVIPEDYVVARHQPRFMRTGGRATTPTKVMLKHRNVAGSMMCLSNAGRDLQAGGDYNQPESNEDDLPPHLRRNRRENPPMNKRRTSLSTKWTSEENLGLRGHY

[5] = cytotoxicity toward NIH3T3 fibroblasts, dose response, counter-screen, cell-based, ATP luminescence, mouse fibroblasts (AID 2010); type: functional;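 further: cells exposed to compound for about 90 hours before reading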
[6] = inhibitors of intracellular T. cruzi replication, confirmation, NIH3T3 host cells, beta-gal luminescence (AID 2044); type: functional, cell-based;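 further: intracellular parasites grown in NIH/3T3 mouse fibroblasts as host cells; luminescent beta-galactosidase reporter signal from transgenic T. cruzi replicating inside host cells; inhibitors lower the luminescence signal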
[7] = biological target: FAD-linked sulfhydryl oxidase ALR (Homo sapiens, UniProt P55789); experiment: inhibitors of human ALR sulfhydryl oxidase, dose response, biochemical, H2O2 detection, luminescence, cherry-pick (AID 493248)
[8] = biological target: T6, Corticotropin-releasing factor receptor 2/Corticotropin-releasing factor-binding protein (Homo sapiens, UniProt P24387+Q13324); experiment: activators of CRF receptor 2 with binding protein – uHTS hits, confirmation (AID 602473); type: functional; settings: read-out: EC50_Mean
T6 sequence (Q13324 whole entry): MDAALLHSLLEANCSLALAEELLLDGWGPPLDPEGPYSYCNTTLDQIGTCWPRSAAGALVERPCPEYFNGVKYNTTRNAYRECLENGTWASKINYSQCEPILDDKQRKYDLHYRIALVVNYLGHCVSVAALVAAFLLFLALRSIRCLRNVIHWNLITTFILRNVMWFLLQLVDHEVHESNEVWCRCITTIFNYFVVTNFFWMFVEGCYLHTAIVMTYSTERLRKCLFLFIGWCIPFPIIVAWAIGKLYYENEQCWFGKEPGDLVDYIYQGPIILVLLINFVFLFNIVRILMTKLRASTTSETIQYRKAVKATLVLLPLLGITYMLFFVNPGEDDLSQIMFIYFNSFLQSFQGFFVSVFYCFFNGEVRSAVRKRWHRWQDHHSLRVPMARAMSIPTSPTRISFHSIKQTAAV
T6 sequence (P24387 whole entry): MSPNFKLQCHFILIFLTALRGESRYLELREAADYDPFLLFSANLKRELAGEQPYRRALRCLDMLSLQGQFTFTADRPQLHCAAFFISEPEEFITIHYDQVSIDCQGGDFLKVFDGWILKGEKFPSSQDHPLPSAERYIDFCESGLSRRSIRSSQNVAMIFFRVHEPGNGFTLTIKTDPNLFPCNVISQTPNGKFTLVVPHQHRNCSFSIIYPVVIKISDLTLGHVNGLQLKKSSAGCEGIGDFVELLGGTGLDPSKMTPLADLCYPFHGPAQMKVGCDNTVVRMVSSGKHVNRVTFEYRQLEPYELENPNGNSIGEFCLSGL

[9] = biological target: T4, Heat shock factor protein 1; experiment: inhibition of MG132-induced HSE-luciferase signal, confirmation, cell-based, NIH3T3, luminescence, dose retest (AID 2382); type: functional;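 further: NIH3T3 fibroblasts with HSF1-driven luciferase reporter stressed by proteasome inhibitor MG132; luminescence from HSF1-driven luciferase expression after 8 hours of MG132 stress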
[10] = biological target: T6, Corticotropin-releasing factor receptor 2/Corticotropin-releasing factor-binding protein; experiment: Dose Response confirmation of uHTS hits for small molecule antagonists of the CRF-binding protein and CRF-R2 receptor complex.; type: functional; settings: read-out: IC50_Mean

FAD-linked sulfhydryl oxidase ALR, sequence (P55789 whole entry): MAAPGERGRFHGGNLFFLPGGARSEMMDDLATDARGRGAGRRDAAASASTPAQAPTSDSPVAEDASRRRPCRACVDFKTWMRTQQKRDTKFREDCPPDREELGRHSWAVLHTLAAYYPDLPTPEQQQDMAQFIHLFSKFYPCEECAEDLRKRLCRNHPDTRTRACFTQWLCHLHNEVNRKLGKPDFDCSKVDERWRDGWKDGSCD

COc1ccc(-c2[nH]nc3c2C(c2ccsc2)C(C#N)=C(N)O3)cc1 (stereo unspecified)
AC50 [1]: 19.2 µM (active) | EC50 (Protein RecA): 13.3 µM (active)

O=C(NCC1CCCO1)c1nn2c(C(F)(F)F)cc(-c3cc(Br)cs3)nc2c1Br (stereo unspecified)
EC50 [2]: > 300 µM (not active) | EC50 [3]: > 260 µM (inactive) | EC50 [4]: > 300 µM (inconclusive)

NC(=O)c1nn(-c2ccccc2)nc1NC(=O)CN1CCCCC1
EC50 [3]: > 260 µM (inactive)

CCCCCCOc1ccc(C(=O)n2cnc(N)n2)cc1
AC50 [1]: 21.6 µM (active) | EC50 (Protein RecA): 1.46 µM (active)

Cc1ccc(C(=O)C(OC(=O)CN2C(=O)c3ccccc3C2=O)c2ccccc2)cc1C (stereo unspecified)
AC50 [1]: 66.8 µM (active) | EC50 (Protein RecA): > 380 µM (inactive)

Cc1ccc(CC2SC(N=C(N)N)=NC2=O)cc1 (stereo unspecified)
EC50 [3]: > 260 µM (inactive)

Cc1cccc(N2CCN(c3cccc(C)c3)C2c2cccnc2)c1
EC50 [5]: 4.39 µM (active) | EC50 [6]: 0.165 µM (active) | EC50 [3]: > 260 µM (inactive)

CN1CCC(=NNc2ccc(S(=O)(=O)N3CCOCC3)cc2[N+](=O)[O-])CC1
EC50 [3]: > 260 µM (inactive)

Cc1ccccc1NS(=O)(=O)c1cccc2nonc12
AC50 [7]: 8.51 µM (active)

Cc1ccc(S(=O)(=O)NCC2CCC(C(=O)NCCCN3CCOCC3)CC2)cc1 (stereo unspecified)
AC50 [1]: > 380 µM (inactive) | EC50 (Protein RecA): > 380 µM (inactive)

COc1ccc(CC(=O)N2CCN=C2SCc2ccc([N+](=O)[O-])cc2)cc1
AC50 [7]: < 0.005 µM (active)

CCN(CC)S(=O)(=O)c1cccc(C(=O)N/N=C/c2cc(OC)c(O)c(OC)c2)c1
AC50 [7]: 0.21 µM (active)

O=C(Nc1ccccc1)C1Cc2ccccc2CN1C(=O)c1ccco1 (stereo unspecified)
AC50 [7]: 12.9 µM (active)

Cn1c(S)nnc1CCNC(=O)c1ccc(Cl)cc1
AC50 [7]: 1.54 µM (active)

O=C(O)CCc1ccc(-c2cccs2)n1NC(=O)c1ccccc1Br
AC50 [7]: 6.95 µM (active)

COc1cc(NC(=O)COC(=O)c2ccc(C)c(S(=O)(=O)N3CCCCC3)c2)c(C)cc1[N+](=O)[O-]
EC50 [3]: > 260 µM (inactive)

Cc1ccc(-c2nnn[nH]2)cc1
EC50 [3]: > 260 µM (inactive)

CC1=NN(c2ccccc2)C(=O)C1c1ccccc1 (stereo unspecified)
AC50 [7]: 2.86 µM (active)

O=C(Nc1cccn(Cc2c(Cl)cccc2Cl)c1=O)c1ccccc1Cl
EC50 [3]: > 260 µM (inactive)

Cc1ccc(Nc2nc(CSc3nnnn3C)cs2)cc1
AC50 [7]: 1.54 µM (active)

CC(Sc1nc(-c2ccccc2)cc(C(F)(F)F)n1)C(=O)Nc1sc2c(c1C#N)CCC2 (stereo unspecified)
EC50 [5]: > 60 µM (not active) | EC50 [6]: 0.137 µM (active) | EC50 [3]: > 260 µM (inactive)

CC(C)CN(CC(C)C)C(S)=NC1CCCCC1
EC50 [8]: > 53 µM (inactive) | EC50 [9]: 17 µM (active) | IC50 [10]: > 47.1 µM (inactive)

O=C1N=C(c2ccccc2)C(c2ccccc2)N1 (stereo unspecified)
AC50 [7]: 0.318 µM (active)

N#Cc1ccc(OCCN2CCc3ccccc3C2)cc1
EC50 [3]: > 260 µM (inactive)

CN(C)C=O.COc1ccc(/C=C/c2nc3ccccc3c(=O)n2-c2cccc(C(=O)O)c2)cc1
EC50 [9]: 22.7 µM (active)

Cc1ccc(-c2nn(C)c(=O)c3ccccc23)cc1S(=O)(=O)NCCN(C)C
EC50 [9]: > 195 µM (not active)

CN(C)CCNC(=O)C(=O)NCC(c1ccc2c(c1)OCO2)N1CCN(c2ccc(F)cc2)CC1 (stereo unspecified)
AC50 [7]: 0.439 µM (active)

Cc1nonc1OCCNCCNc1ccc([N+](=O)[O-])cc1Cl
EC50 [3]: > 260 µM (inactive)

CCC1CCCCN1C(=O)c1cc2c(=O)n3cccc(C)c3nc2s1 (stereo unspecified)
EC50 [9]: > 195 µM (not active)
